# PMC6532548, “Embelin, a Potent Molecule for Alzheimer's Disease: A Proof of Concept From Blood-Brain Barrier Permeability, Acetylcholinesterase Inhibition and Molecular Docking Studies” (Frontiers in Neuroscience, 2019)
# Target: acetylcholinesterase (AChE) (Electrophorus electricus, UniProt O42275)
# Experiment: Ellman's assay with electric eel AChE, acetylthiocholine iodide substrate
# Type: biochemical
# acetylcholinesterase (AChE), sequence (O42275 24-633): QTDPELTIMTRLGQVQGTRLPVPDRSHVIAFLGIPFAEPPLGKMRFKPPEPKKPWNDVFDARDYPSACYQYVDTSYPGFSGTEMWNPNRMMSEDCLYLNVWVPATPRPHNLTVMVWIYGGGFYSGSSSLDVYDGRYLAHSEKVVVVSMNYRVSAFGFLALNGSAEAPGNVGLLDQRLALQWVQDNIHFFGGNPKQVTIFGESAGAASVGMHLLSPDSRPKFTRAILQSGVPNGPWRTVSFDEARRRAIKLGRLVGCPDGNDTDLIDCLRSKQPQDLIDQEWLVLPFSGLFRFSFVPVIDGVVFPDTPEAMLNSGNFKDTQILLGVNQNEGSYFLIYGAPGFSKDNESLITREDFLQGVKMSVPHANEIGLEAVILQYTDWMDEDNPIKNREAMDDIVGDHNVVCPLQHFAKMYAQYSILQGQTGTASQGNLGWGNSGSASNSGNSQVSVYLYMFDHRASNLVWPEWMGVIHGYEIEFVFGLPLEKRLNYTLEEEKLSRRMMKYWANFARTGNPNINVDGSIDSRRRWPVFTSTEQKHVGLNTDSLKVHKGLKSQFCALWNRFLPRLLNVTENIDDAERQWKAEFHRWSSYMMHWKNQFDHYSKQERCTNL
compound,measurement,value
"CCCCCCCCCCCC1=C(O)C(=O)C=C(O)C1=O [embelin, 2,5-dihydroxy-3-undecyl-1,4-benzoquinone]",IC50,169 µM
